Laboratory results taken from ChEMBL document CHEMBL1201862, “PubChem BioAssay data set” (2004).
Calls of active or inactive are those of the source.

What was measured:
Cytochrome P450 3A4 = Cytochrome P450 3A4 (Homo sapiens, UniProt P08684); conditions: Potency;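 further: confirmatory qHTS run detecting inhibitors and substrates of CYP3A4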
[1] = molecular target: T1, Replicative DNA helicase DnaB (Mycobacterium tuberculosis, UniProt P9WMR3); experiment: DnaB intein splicing inhibitors, dose response, biochemical, cell-free fluorescence (AID 449749); format: functional
T1 sequence (P9WMR3 whole entry): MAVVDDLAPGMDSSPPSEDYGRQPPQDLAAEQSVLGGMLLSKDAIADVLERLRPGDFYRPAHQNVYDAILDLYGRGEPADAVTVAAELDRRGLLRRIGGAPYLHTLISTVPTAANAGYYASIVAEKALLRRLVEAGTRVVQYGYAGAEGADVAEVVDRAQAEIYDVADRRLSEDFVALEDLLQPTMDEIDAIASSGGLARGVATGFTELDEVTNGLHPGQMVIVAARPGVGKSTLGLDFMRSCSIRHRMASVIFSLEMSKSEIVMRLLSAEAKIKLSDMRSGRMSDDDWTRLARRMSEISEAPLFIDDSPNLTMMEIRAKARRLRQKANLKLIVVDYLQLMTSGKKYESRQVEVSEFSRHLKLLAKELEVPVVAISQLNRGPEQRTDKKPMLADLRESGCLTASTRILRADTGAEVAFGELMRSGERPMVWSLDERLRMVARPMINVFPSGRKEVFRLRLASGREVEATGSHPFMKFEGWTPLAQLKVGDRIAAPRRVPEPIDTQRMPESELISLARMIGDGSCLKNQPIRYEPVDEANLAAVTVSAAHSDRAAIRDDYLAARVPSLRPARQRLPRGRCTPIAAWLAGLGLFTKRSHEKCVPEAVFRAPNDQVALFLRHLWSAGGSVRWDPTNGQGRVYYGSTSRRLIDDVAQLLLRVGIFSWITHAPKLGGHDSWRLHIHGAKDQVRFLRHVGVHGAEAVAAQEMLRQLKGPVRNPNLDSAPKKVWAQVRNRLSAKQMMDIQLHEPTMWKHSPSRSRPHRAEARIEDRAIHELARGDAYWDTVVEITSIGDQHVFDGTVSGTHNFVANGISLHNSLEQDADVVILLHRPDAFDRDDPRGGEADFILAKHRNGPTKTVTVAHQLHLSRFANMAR

Protein RecA = molecular target: T2, Protein RecA (Mycobacterium tuberculosis, UniProt P9WHJ3); experiment: Fluorescence Cell-Free Homogeneous Dose Retest to Identify Inhibitors of RecA-Intein Splicing Activity. [Related pubchem assays (depositor defined):AID2097, AID2223, AID489010, AID492950]; format: functional
T2 sequence (P9WHJ3 whole entry): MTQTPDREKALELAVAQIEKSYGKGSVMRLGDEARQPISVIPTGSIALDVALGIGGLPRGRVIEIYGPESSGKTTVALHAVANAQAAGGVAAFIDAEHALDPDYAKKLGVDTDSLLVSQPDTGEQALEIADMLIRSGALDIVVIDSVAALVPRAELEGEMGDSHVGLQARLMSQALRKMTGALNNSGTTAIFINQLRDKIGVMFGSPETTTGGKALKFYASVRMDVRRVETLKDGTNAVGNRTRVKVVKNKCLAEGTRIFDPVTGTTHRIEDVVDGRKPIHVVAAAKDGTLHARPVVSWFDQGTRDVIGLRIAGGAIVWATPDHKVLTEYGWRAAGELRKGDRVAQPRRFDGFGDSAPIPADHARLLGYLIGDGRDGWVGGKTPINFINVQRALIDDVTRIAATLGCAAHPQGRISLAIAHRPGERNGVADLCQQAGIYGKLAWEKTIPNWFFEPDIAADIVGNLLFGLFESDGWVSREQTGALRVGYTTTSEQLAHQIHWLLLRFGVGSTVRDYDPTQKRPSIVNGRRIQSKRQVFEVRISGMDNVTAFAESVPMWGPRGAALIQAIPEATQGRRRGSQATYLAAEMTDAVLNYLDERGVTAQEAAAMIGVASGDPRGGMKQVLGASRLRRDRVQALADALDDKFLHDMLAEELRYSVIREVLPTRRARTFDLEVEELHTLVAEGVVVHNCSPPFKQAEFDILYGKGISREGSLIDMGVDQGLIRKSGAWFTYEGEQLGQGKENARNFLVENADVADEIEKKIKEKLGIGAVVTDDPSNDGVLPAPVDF

Aminopeptidase N = molecular target: T3, Aminopeptidase N (Plasmodium falciparum FcB1/Columbia, UniProt O96935); experiment: malaria alanyl aminopeptidase activity blockers – biochemical, fluorogenic H-Leu-NHMec substrate, 1536-well (AID 1445); design: species or system Plasmodium falciparum 3D7, 3D7
T3 sequence (O96935 whole entry): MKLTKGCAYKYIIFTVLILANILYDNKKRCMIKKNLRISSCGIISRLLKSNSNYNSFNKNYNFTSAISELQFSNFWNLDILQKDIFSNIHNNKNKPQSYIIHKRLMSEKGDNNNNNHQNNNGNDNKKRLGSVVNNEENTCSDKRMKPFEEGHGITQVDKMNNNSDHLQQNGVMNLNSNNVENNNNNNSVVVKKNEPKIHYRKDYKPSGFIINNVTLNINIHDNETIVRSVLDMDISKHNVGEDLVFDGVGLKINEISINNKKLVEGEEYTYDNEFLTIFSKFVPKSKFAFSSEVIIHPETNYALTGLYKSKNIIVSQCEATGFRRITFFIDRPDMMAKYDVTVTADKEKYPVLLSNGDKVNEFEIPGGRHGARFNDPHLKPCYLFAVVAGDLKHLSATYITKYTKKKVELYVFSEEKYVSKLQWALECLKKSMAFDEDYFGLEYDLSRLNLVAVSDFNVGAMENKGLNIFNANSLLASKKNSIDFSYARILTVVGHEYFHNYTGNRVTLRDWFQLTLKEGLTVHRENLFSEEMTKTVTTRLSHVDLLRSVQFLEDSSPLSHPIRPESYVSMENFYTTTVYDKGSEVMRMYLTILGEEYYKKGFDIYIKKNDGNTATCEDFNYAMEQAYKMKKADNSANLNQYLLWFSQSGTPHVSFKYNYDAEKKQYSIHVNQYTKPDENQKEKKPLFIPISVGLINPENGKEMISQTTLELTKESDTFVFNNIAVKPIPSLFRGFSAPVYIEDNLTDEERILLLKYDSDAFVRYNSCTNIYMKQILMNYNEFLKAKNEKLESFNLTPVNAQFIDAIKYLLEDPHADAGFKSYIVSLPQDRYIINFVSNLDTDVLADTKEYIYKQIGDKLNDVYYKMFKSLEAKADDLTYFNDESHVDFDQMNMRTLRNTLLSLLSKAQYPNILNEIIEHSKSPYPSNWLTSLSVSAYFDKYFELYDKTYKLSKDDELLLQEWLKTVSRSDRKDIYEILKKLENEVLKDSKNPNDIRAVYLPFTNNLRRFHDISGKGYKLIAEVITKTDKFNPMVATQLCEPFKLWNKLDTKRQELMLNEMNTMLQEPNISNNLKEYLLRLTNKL

HEK293 [2] = experiment: cells; format: functional, cell-based; conditions: Homo sapiens
HEK293 [3] = experiment: NOD2 signaling inhibitors in MDP-stimulated cells, cell-based, uHTS, luminescence (AID 2001); format: functional; conditions: Homo sapiens
HEK293 [4] = experiment: inhibition of NOD1-driven NF-kB reporter – cell-based, luminescence, uHTS, primary screen (AID 1578); format: functional; conditions: Homo sapiens
HEK293 [5] = experiment: cells; format: functional, cell-based; conditions: Homo sapiens; remark: listed apart in the source
[6] = molecular target: Voltage-dependent T-type calcium channel subunit alpha-1H (Homo sapiens, UniProt O95180); format: functional;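 further: channel activity triggered by adding a high calcium stimulation buffer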
Chain of Voltage-dependent T-type calcium channel subunit alpha-1H (O95180 whole entry, the tested form may be a part): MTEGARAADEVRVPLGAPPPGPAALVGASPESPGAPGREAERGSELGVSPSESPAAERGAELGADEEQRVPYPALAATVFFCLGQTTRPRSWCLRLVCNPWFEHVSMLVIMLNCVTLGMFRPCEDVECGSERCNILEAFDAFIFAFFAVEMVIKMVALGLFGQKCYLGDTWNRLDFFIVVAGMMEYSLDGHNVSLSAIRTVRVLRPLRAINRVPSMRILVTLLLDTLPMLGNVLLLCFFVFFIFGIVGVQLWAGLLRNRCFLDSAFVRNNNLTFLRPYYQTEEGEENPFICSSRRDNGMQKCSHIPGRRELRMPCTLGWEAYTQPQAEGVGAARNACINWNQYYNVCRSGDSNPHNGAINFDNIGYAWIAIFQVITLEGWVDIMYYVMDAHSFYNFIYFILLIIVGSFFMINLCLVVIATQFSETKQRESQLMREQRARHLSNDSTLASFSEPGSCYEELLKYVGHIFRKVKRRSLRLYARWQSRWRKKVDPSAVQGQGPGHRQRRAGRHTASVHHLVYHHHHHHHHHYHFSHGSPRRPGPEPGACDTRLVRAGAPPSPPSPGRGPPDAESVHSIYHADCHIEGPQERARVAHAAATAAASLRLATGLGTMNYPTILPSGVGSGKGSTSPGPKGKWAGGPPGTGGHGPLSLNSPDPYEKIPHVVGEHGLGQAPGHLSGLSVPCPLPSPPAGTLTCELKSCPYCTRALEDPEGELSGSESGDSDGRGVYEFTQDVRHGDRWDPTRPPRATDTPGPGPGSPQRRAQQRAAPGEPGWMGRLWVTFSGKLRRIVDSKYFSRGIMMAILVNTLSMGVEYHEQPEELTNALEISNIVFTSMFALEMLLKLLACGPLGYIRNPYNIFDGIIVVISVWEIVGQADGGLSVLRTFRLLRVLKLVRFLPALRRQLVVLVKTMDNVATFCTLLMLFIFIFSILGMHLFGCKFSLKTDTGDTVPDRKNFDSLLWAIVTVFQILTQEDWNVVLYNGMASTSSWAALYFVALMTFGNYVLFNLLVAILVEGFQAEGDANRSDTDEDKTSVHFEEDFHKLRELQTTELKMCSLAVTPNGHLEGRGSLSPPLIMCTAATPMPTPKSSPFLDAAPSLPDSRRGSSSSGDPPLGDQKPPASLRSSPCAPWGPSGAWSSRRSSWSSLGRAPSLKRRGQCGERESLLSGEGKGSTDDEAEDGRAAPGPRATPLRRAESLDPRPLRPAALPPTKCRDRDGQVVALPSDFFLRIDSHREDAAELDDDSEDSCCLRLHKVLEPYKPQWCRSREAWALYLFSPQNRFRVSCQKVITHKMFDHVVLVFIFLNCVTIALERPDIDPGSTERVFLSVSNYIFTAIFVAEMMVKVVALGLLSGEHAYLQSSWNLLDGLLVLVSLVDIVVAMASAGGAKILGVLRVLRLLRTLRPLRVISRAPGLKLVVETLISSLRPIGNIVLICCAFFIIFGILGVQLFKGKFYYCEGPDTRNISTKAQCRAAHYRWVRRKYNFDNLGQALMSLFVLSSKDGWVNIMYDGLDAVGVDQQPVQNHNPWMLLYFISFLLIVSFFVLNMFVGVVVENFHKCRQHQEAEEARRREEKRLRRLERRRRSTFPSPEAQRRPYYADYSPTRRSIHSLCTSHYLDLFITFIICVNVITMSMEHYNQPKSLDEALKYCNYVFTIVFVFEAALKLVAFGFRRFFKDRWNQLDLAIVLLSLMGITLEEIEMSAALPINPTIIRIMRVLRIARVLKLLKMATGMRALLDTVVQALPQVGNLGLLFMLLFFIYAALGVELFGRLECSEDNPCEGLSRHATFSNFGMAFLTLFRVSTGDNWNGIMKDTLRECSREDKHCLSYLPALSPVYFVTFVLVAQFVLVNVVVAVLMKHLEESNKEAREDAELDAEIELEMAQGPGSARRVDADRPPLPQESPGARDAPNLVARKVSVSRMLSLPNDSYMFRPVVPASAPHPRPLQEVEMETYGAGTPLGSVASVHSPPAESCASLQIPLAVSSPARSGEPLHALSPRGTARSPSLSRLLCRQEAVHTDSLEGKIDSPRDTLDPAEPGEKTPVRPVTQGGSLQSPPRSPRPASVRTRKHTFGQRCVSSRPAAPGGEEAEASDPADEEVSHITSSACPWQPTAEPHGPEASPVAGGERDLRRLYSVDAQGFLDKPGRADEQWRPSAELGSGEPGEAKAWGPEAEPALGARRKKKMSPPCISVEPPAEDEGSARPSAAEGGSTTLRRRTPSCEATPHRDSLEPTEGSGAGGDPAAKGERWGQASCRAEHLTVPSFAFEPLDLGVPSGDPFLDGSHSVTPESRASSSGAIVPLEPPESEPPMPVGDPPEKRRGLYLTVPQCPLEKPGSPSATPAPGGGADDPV

[7] = HIV-1 AD8 envelope cell-cell fusion blockers – cherry-pick, dose response (AID 652062); format: functional, cell-based;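 further: luciferase signal from cell-cell fusion driven by HIV-1 clade B AD8 Env; potency is for inhibitors of fusion seen as a drop in luminescence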
[8] = viability loss in CEM21 cells – cell-based, CellTiter-Glo luminescence, cherry-picked, cytotoxicity control for viral fusion inhibitor project, dose response (AID 652042); format: functional;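 further: potency for signal decrease meaning cytotoxicity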
[9] = blockers of HIV-1 envelope-mediated cell-cell fusion – cherry-pick, dose response (AID 652057); format: functional, cell-based
[10] = molecular target: T4, Ubiquitin-conjugating enzyme E2 N (Homo sapiens, UniProt P61088); format: functional;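 further: Dose-response confirmation in a TR-FRET assay detecting UBC13-driven polyubiquitin chain formation, inhibition measured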
T4 sequence (P61088 whole entry): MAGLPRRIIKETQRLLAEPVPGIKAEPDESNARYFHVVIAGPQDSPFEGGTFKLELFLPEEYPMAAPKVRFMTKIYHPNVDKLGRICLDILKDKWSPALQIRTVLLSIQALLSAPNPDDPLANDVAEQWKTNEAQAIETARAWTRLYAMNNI

cells [11] = experiment: cells
[12] = Luminescence Cell-Based Dose Retest to Confirm Inhibitors of Cancer Stem Cells. [Related pubchem assays (depositor defined):AID2717, AID2721]; format: functional; conditions: Homo sapiens
[13] = viability of uninfected HEp-2 cells – cell-based, HTS, cytotoxicity control for RSV inhibitor project, dose response (AID 2410); format: functional; conditions: human respiratory syncytial virus
cells [14] = format: functional
[15] = HepG2 cell cytotoxicity, dose response, cytotoxicity control for non-replicating M. tuberculosis project (AID 489018); format: functional; conditions: Mycobacterium tuberculosis
[16] = THP-1 cell cytotoxicity, dose response, cytotoxicity control for non-replicating M. tuberculosis project (AID 489025); format: functional
[17] = molecular target: Glyceraldehyde-3-phosphate dehydrogenase (Homo sapiens, UniProt P04406)
Chain of Glyceraldehyde-3-phosphate dehydrogenase (P04406 whole entry): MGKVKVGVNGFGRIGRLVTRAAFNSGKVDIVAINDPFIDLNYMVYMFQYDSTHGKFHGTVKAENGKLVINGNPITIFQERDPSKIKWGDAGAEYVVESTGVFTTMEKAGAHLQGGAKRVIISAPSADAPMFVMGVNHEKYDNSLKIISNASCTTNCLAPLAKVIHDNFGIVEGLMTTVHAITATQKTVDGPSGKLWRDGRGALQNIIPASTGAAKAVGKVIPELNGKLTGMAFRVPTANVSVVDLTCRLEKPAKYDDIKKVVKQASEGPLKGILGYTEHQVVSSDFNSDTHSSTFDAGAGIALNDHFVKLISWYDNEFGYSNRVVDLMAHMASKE

[18] = molecular target: T5, Alkaline phosphatase, tissue-nonspecific isozyme (Homo sapiens, UniProt P05186); experiment: potency against alkaline phosphatase TNAP – biochemical, luminescent, dose response, SAR follow-up (AID 1056)
T5 sequence (P05186 whole entry): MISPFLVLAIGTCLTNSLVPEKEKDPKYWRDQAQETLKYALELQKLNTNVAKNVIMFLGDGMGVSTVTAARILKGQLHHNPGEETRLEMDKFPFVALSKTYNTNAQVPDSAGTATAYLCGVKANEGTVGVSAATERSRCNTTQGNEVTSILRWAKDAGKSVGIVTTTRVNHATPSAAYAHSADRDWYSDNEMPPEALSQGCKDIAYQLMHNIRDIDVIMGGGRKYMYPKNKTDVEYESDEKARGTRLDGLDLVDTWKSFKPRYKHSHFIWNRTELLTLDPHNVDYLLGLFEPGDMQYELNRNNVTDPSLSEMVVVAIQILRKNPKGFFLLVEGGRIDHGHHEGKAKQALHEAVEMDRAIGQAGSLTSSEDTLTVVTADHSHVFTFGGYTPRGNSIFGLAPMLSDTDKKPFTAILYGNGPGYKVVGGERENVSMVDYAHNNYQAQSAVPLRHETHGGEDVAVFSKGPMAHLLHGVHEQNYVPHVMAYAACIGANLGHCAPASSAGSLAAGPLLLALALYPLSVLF

Fatty acid synthase [19] = molecular target: T6, Fatty acid synthase (Homo sapiens, UniProt P49327); experiment: inhibition of human FAS-TE enzyme activity – biochemical, kinetic fluorescence intensity, dose response (AID 624326); format: functional;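 further: rate of fluorescence rise from hydrolysis of a fluorogenic O-methyl fluorescein ester substrate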
Fatty acid synthase [20] = molecular target: T6, Fatty acid synthase; experiment: inhibition of human FAS-TE enzyme activity – biochemical, endpoint fluorescence intensity, uHTS hits, dose response (AID 624327); format: functional;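 further: fluorescence from hydrolysis of an O-methyl fluorescein acyl ester substrate by the enzyme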

Chain of Cytochrome P450 3A4 (P08684 whole entry): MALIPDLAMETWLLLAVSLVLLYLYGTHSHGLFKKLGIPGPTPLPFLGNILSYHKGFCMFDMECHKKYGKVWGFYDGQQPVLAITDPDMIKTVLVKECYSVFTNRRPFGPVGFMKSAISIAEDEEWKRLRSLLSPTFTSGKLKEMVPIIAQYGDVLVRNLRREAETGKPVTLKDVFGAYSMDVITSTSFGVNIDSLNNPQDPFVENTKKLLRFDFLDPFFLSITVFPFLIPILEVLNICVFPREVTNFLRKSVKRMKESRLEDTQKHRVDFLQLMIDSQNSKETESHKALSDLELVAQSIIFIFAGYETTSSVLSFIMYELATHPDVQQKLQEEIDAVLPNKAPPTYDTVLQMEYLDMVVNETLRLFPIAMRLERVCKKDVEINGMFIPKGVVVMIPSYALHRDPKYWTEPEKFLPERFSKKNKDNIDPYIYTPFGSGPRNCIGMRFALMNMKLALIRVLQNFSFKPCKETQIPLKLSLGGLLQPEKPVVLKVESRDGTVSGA

CCCN1[C@@H]2C[C@@H](O)CC[C@@H]2C[C@H]1C(=O)OC
AC50 (Cytochrome P450 3A4): 25.1 µM (inconclusive)

COc1cc(Br)c(C2C(C#N)=C(N)Oc3[nH]nc(-c4cccnc4)c32)cc1OC (stereo not drawn)
AC50 [1]: 35 µM (active)
EC50 (Protein RecA): 8.6 µM (active)
IC50 (Aminopeptidase N): 44.6 µM (active)

c1ccc(-c2cc3c(nc2-c2ccccc2)CCNC3)cc1
AC50 (Cytochrome P450 3A4): 5.01 µM (inconclusive)

CN(C(=O)C(C)(C)C)c1ccc(OCC(=O)N2CCc3ccccc3C2)cc1
IC50 (HEK293 [2]): 12.9 µM (active)
IC50 (HEK293 [3]): 18.1 µM (inactive)
EC50 (HEK293 [4]): 4.6 µM (active)
IC50 (HEK293 [5]): > 20 µM (inactive)

Cc1cccc(N2CCN(C(=O)CCCSc3nc4ccccc4[nH]3)CC2)c1C
EC50 [6]: 5.23 µM (active)
AC50 [7]: 12.3 µM (active)
AC50 [8]: 50.8 µM (active)
AC50 [9]: 46.1 µM (active)

COc1ccc(C[C@H]2CN3C(=NC[C@@H]3Cc3ccc(O)cc3)N2C[C@H](C)NC(=O)c2ccc(C)c(Br)c2)cc1
IC50 [10]: > 20 µM (inactive)

C=CCc1ccc(OCC(O)COc2ccc(CC=C)cc2OC)c(OC)c1
EC50 [6]: 6.12 µM (active)

COc1cc(/C=C/C(=O)c2cccs2)cc(OC)c1OC
AC50 (Cytochrome P450 3A4): 3.16 µM (inconclusive)

COc1nc(N=C(N)N)nc2c(C)cccc12
IC50 (Aminopeptidase N): 22.2 µM (active)

COCCNc1cc(-c2ccccc2)nc2cc(-c3cccc(F)c3)nn12
IC50 (cells [11]): 41.8 µM (active)
AC50 [12]: 6.74 µM (active)
CC50 [13]: 35.1 µM (active)

COc1ccc(-c2csc(NC(C)c3nc4cc(C(=O)NCCCO)ccc4n3Cc3ccc(C)cc3)n2)cc1 (stereo not drawn)
IC50 [10]: > 20 µM (inactive)

Clc1ccc(/C=N/Nc2nnn[nH]2)cc1
IC50 (Aminopeptidase N): 92.8 µM (active)

CC(/C=C/c1ccco1)=N\NC(=O)c1cccc(Cl)c1
IC50 (cells [14]): 6.09 µM (active)
CC50 [15]: > 20 µM (active)
CC50 [16]: > 40 µM (active)

COc1ccc(-c2csc(NC(=O)C3=NN(c4ccccc4)C(=O)CC3)n2)cc1
IC50 (HEK293 [2]): 5.51 µM (active)
IC50 (HEK293 [3]): 5.67 µM (inactive)
EC50 (HEK293 [4]): 15.7 µM (active)
IC50 (HEK293 [5]): 17.5 µM (active)

Cc1ccc(-n2ncc(C(=O)NCc3ccc4c(c3)OCO4)c2NC(=O)c2ccco2)cc1C
EC50 [6]: 1.89 µM (active)

COc1ccc(S(=O)(=O)Nc2cccnc2)cc1OC
IC50 [17]: > 100 µM (not active)
IC50 [18]: > 100 µM (inactive)

Cc1cccn2c(=O)c(/C=C(\C#N)C(=O)NCc3ccco3)c(N3CCCCCC3)nc12
IC50 (cells [11]): 22.5 µM (active)
IC50 (Fatty acid synthase [19]): 9.53 µM (active)
IC50 (Fatty acid synthase [20]): 21.9 µM (inactive)
CC50 [13]: 22 µM (active)

Cc1ccc(-c2cc(C(=O)O)[nH]n2)cc1
IC50 [17]: > 100 µM (not active)
IC50 [18]: 8.71 µM (active)
